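Each compound was tested at five concentrations against cells in 96-well plates for 48 hours. GI50: concentration for 50% inhibition of growth.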 Calls of active or inactive are those of the source. Rule as the data show it: active = GI50 up to about 1.1 µM and inactive = higher.
Columns and labels:
Assay in all cases: DTP human tumour cell line panel, 48 h
COLO 205 = system: COLO 205
DU-145 = system: DU-145
HCT-116 = system: HCT-116
HCT-15 = system: HCT-15
HL-60 = system: HL-60
HT-29 = system: HT-29
KM12 = system: KM12
MCF7 = system: MCF7
MOLT-4 = system: MOLT-4
Malme-3M = system: Malme-3M
NCI-H460 = system: NCI-H460
OVCAR-4 = system: OVCAR-4
PC-3 = system: PC-3
SF-295 = system: SF-295
T47D = system: T47D
UACC-257 = system: UACC-257
UACC-62 = system: UACC-62
HCC 2998 = system: HCC 2998
NCI/ADR-RES = system: NCI/ADR-RES
SK-MEL-5 = system: SK-MEL-5

Row | SMILES | GI50 (COLO 205) | GI50 (DU-145) | GI50 (HCT-116) | GI50 (HCT-15) | GI50 (HL-60) | GI50 (HT-29) | GI50 (KM12) | GI50 (MCF7) | GI50 (MOLT-4) | GI50 (Malme-3M) | GI50 (NCI-H460) | GI50 (OVCAR-4) | GI50 (PC-3) | GI50 (SF-295) | GI50 (T47D) | GI50 (UACC-257) | GI50 (UACC-62) | GI50 (HCC 2998) | GI50 (NCI/ADR-RES) | GI50 (SK-MEL-5)
1 | Cc1cc(S(=O)(=O)[N-]/C(=N/S(=O)(=O)c2ccc(Cl)cc2)[n+]2ccc(N(C)C)cc2)c(SCC(=O)O)cc1Cl | > 100 µM (inactive) | > 100 µM (inactive) | 26.4 µM (inactive) | > 100 µM | > 100 µM (inactive) | 57.5 µM (inactive) | > 100 µM (inactive) | 43.8 µM (inactive) | 34.7 µM (inactive) | 33.2 µM (inactive) | 42.8 µM (inactive) | 34.8 µM (inactive) | 69.5 µM (inactive) | 30.7 µM (inactive) | > 100 µM (inactive) | > 100 µM (inactive) | 91.4 µM (inactive) |  |  | 
2 | C/C(=N/NC(=S)N(C)CCc1ccccn1)c1cnccn1 | < 0.01 µM (active) | 0.378 µM (active) | < 0.01 µM (active) | < 0.01 µM | < 0.01 µM (active) | < 0.01 µM (active) | 0.0406 µM (active) | < 0.01 µM (active) | < 0.01 µM (active) | < 0.01 µM (active) | 0.047 µM (active) | < 0.01 µM (active) | < 0.01 µM (active) | 0.177 µM (active) |  | < 0.015 µM (active) | 0.0986 µM (active) | 1.4 µM (inactive) | < 0.01 µM (active) | 0.0256 µM (active)
3 | CC(C)OP(=O)(OC(C)C)C(C(C)C)N(C)/C(N)=N\C1=NC(C(F)(F)F)(C(F)(F)F)N=C(C(C(F)(F)F)C(F)(F)F)O1 (configuration not stated) | 1.8 µM (inactive) | 6.9 µM (inactive) | 2.31 µM (inactive) | 3.75 µM | 1.12 µM (inactive) | 2.46 µM (inactive) | 3.4 µM (inactive) | 3.79 µM (inactive) | 1.49 µM (inactive) | 4.51 µM (inactive) | 2.64 µM (inactive) |  | 2.56 µM (inactive) | 3.66 µM (inactive) | 3.01 µM (inactive) | 3.05 µM (inactive) | 2.01 µM (inactive) | 4.91 µM (inactive) |  | 1.56 µM (inactive)
4 | O=C(Nc1ccc(C(F)(F)F)cc1)NC(F)(F)F | > 100 µM (inactive) |  | > 100 µM (inactive) | > 100 µM | > 100 µM (inactive) | > 100 µM (inactive) |  |  | > 100 µM (inactive) |  |  |  | > 100 µM (inactive) |  | > 100 µM (inactive) | > 100 µM (inactive) |  | > 100 µM (inactive) | > 100 µM (inactive) | > 100 µM (inactive)
5 | Cn1nc(S(N)(=O)=O)s/c1=N/S(=O)(=O)c1ccc(N)cc1 | > 100 µM (inactive) | > 100 µM (inactive) |  | > 100 µM |  | > 100 µM (inactive) | > 100 µM (inactive) |  | > 100 µM (inactive) | > 100 µM (inactive) | > 100 µM (inactive) | > 100 µM (inactive) | > 100 µM (inactive) | > 100 µM (inactive) |  |  | > 100 µM (inactive) | > 100 µM (inactive) | > 100 µM (inactive) | 
6 | Clc1ccccc1/C=C/c1nsc(/C=C/c2ccccc2Cl)n1 | 47.4 µM (inactive) | > 100 µM (inactive) | 34.8 µM (inactive) | 38 µM | 21.6 µM (inactive) | 35.2 µM (inactive) | 88.9 µM (inactive) | 32 µM (inactive) | 33.5 µM (inactive) | 53.7 µM (inactive) | 21.4 µM (inactive) | 81.7 µM (inactive) | 30.1 µM (inactive) | 54 µM (inactive) | 10.4 µM (inactive) | 26.5 µM (inactive) |  |  | 45.2 µM (inactive) | 36.1 µM (inactive)
7 | Cc1ccc(S(=O)(=O)Nn2c(O)c(C#N)c(-c3ccc([N+](=O)[O-])cc3)c(C#N)c2=O)cc1 | > 100 µM (inactive) |  | > 100 µM (inactive) | > 100 µM | > 100 µM (inactive) | > 100 µM (inactive) | > 100 µM (inactive) | > 100 µM (inactive) | > 100 µM (inactive) | > 100 µM (inactive) | > 100 µM (inactive) | > 100 µM (inactive) | > 100 µM (inactive) | > 100 µM (inactive) |  | > 100 µM (inactive) | > 100 µM (inactive) | > 100 µM (inactive) | > 100 µM (inactive) | > 100 µM (inactive)
8 | COc1ccccc1/N=C(\N)N/N=C/c1c[nH]c2ccccc12 | 1.67 µM (inactive) |  | 6.81 µM (inactive) | 4.2 µM | 7.29 µM (inactive) | 4.01 µM (inactive) | 14.9 µM (inactive) |  | 3.13 µM (inactive) | 2.58 µM (inactive) | 8.87 µM (inactive) | 16.8 µM (inactive) |  | 8.97 µM (inactive) |  | 2.39 µM (inactive) | 11.5 µM (inactive) | 2.55 µM (inactive) |  | 2.78 µM (inactive)
9 | COC(=O)c1cc(C#N)[nH]c1-c1ccc(C)s1 | 64.3 µM (inactive) | 30.6 µM (inactive) | > 100 µM (inactive) | 41.6 µM |  |  | 92.7 µM (inactive) |  | > 100 µM (inactive) |  | 82.2 µM (inactive) | 76.2 µM (inactive) | 8.39 µM (inactive) | 38.8 µM (inactive) | 25.6 µM (inactive) | 64.7 µM (inactive) | 51.3 µM (inactive) | > 100 µM (inactive) | 31.1 µM (inactive) | 
10 | CC(=O)OCC1OC(c2nc3ccccc3s2)=CC(OC(C)=O)C1OC(C)=O (configuration not stated) | > 100 µM (inactive) | > 100 µM (inactive) | 57.5 µM (inactive) |  | 22.3 µM (inactive) | > 100 µM (inactive) | > 100 µM (inactive) | > 100 µM (inactive) | > 10 µM (inactive) | > 100 µM (inactive) | > 100 µM (inactive) | > 100 µM (inactive) | > 100 µM (inactive) | > 100 µM (inactive) |  | > 100 µM (inactive) |  |  | > 100 µM (inactive) | > 100 µM (inactive)
11 | O=C1C2CC=CCC2C(=O)N1n1c(Cc2ccccc2)n[nH]c1=O (configuration not stated) | > 100 µM (inactive) |  | > 100 µM (inactive) | > 100 µM |  | > 100 µM (inactive) | > 100 µM (inactive) | > 100 µM (inactive) | > 100 µM (inactive) | > 100 µM (inactive) | > 100 µM (inactive) | > 100 µM (inactive) | > 100 µM (inactive) | > 100 µM (inactive) | > 100 µM (inactive) | > 100 µM (inactive) | > 100 µM (inactive) | > 100 µM (inactive) | > 100 µM (inactive) | > 100 µM (inactive)
12 | O=C(CNc1ccccc1[N+](=O)[O-])Nn1cnc2ccc(S(=O)(=O)Nc3ccccc3[N+](=O)[O-])cc2c1=O | > 100 µM (inactive) | > 100 µM (inactive) | > 100 µM (inactive) | > 100 µM | > 100 µM (inactive) | > 100 µM (inactive) | > 100 µM (inactive) | > 100 µM (inactive) | > 100 µM (inactive) | > 100 µM (inactive) | > 100 µM (inactive) | > 100 µM (inactive) | > 100 µM (inactive) | > 100 µM (inactive) |  | > 100 µM (inactive) | > 100 µM (inactive) | > 100 µM (inactive) | > 100 µM (inactive) | 
13 | Cc1ccc(S(=O)(=O)N/N=C2\C=CC3(CC2)C(=O)N(I)c2ccccc23)cc1 (configuration not stated) | > 100 µM (inactive) | > 10 µM (inactive) | 87.5 µM (inactive) | > 100 µM |  | > 100 µM (inactive) | 82.2 µM (inactive) |  | 42.6 µM (inactive) | 0.055 µM (active) | 94.4 µM (inactive) | > 100 µM (inactive) | 63.1 µM (inactive) | 41.5 µM (inactive) | > 100 µM (inactive) | > 100 µM (inactive) | > 100 µM (inactive) | > 100 µM (inactive) | > 100 µM (inactive) | > 100 µM (inactive)
14 | CC(C)(C)c1cc2ccc(C(N)=O)cc2c(=O)[nH]1 | > 100 µM (inactive) |  | 69.7 µM (inactive) | > 100 µM | 79.8 µM (inactive) | > 100 µM (inactive) | 59.3 µM (inactive) |  | > 100 µM (inactive) | > 100 µM (inactive) | > 100 µM (inactive) | > 100 µM (inactive) |  | > 100 µM (inactive) |  | > 100 µM (inactive) | > 100 µM (inactive) | > 100 µM (inactive) |  | > 100 µM (inactive)
15 | Nc1ccc(C(=O)NN2C(=O)C(Cl)C2c2cccc([N+](=O)[O-])c2)cc1 (configuration not stated) | 19 µM (inactive) |  | 17.3 µM (inactive) | 18.6 µM | 20.7 µM (inactive) | 20.7 µM (inactive) | 16.2 µM (inactive) |  | 15.1 µM (inactive) | 20.4 µM (inactive) | 59.7 µM (inactive) | 16.4 µM (inactive) |  | 20.5 µM (inactive) |  | 23.1 µM (inactive) | 21.1 µM (inactive) | 24.3 µM (inactive) |  | 19.2 µM (inactive)
16 | COc1ccc(N)c(C(=O)CCNC(C)=O)c1 [KINURENAMINE] | > 100 µM (inactive) | > 100 µM (inactive) | > 100 µM (inactive) | > 100 µM | > 100 µM (inactive) | > 100 µM (inactive) | > 100 µM (inactive) | > 100 µM (inactive) | > 100 µM (inactive) |  | > 100 µM (inactive) | > 100 µM (inactive) | > 100 µM (inactive) | > 100 µM (inactive) | > 100 µM (inactive) | > 100 µM (inactive) | > 100 µM (inactive) |  | > 100 µM (inactive) | > 100 µM (inactive)
17 | N=NCC(=O)OC(COCc1ccccc1)COCc1ccccc1 | 96.4 µM (inactive) | 36.3 µM (inactive) | > 100 µM (inactive) | > 100 µM | 56.6 µM (inactive) | > 100 µM (inactive) | 31.4 µM (inactive) | 65 µM (inactive) | 39.7 µM (inactive) | > 100 µM (inactive) | 7.1 µM (inactive) | 69.7 µM (inactive) | 70 µM (inactive) | 95.5 µM (inactive) |  | > 100 µM (inactive) | > 100 µM (inactive) | > 100 µM (inactive) |  | 49.1 µM (inactive)
